Assay results as given in ChEMBL document CHEMBL3091316, “Antiangiogenic tocotrienol derivatives from Garcinia amplexicaulis” (J Nat Prod, 2013).
The source made the active and inactive calls. No cut-off for these calls is given here.

Tests used:
[1] = tested on: HUVEC; assay: Inhibition of VEGF-induced HUVEC proliferation at 25 nM to 2.5 uM incubated for 30 mins prior to VEGF challenge measured after 24 hrs by fluorescence assay; assay type: functional, cell-based; conditions: Homo sapiens
[2] = tested on: HUVEC; assay: Antiadhesive activity in HUVEC assessed as decrease in cell adhesion at 25 nM to 2.5 uM after 24 hrs by crystal violet staining technique; assay type: functional, cell-based; conditions: Homo sapiens
[3] = tested on: HUVEC; assay: Antimigratory activity in VEGF-induced HUVEC assessed as decrease in cell migration at 2.5 uM incubated for 30 mins prior to VEGF challenge measured after 24 hrs by Transwell assay; assay type: functional, cell-based; conditions: Homo sapiens
[4] = tested on: HUVEC; assay: Cytotoxicity against HUVEC assessed as cell viability at 25 nM to 2.5 uM after 24 to 48 hrs by MTT assay; assay type: cell-based; conditions: human, 0.025 µM
[5] = tested on: HUVEC; assay: Antiangiogenic activity in HUVEC assessed as inhibition of VEGF-induced capillary network formation at 25 nM to 2.5 uM after 24 hrs by matrigel assay; assay type: functional, cell-based; conditions: Homo sapiens
[6] = tested on: HUVEC; assay: Antimigratory activity in VEGF-induced HUVEC assessed as decrease in cell migration at 25 nM to 2.5 uM incubated for 30 mins prior to VEGF challenge measured after 24 hrs by Transwell assay; assay type: functional, cell-based; conditions: Homo sapiens

With `C/C(=C\CC/C(C)=C/CC[C@]1(C)CCc2cc(O)cc(C)c2O1)CCC=C(CO)CO` the inhibition [1] was “Active”, the Activity [2] was “Active” and the Activity [3] was “Active”. For the same molecule, the Activity [4] was “Non-toxic” and the Activity [5] was “Active”.

With `C/C(=C\CC/C(C)=C/CC[C@]1(C)CCc2cc(O)c(C)c(C)c2O1)CCC=C(CO)CO` the inhibition [1] was “Active”, the Activity [6] was “inactive” and the Activity [2] was “inactive”. The Activity [4] was “Non-toxic” and the Activity [5] was “Active”.
